For this test, the target named is human TYK2 (JH2domain-pseudokinase) (Homo sapiens (Human), UniProt P29597). The experiment in a line: TYK2 JH2 Domain Binding Assay (KINOMEscan). The method, then: Binding constants for compounds of the present invention against the JH2 domain were determined by the following protocol for a KINOMEscan® assay (DiscoveRx). A fusion protein of a partial length construct of human TYK2 (JH2domain-pseudokinase) (amino acids G556 to D888 based on reference sequence NP_003322.3) and the DNA binding domain of NFkB was expressed in transiently transfected HEK293 cells. From these HEK 293 cells, extracts were prepared in M-PER extraction buffer (Pierce) in the presence of Protease Inhibitor Cocktail Complete (Roche) and Phosphatase Inhibitor Cocktail Set II (Merck) per manufacturers' instructions. The TYK2 (JH2domain-pseudokinase) fusion protein was labeled with a chimeric double-stranded DNA tag containing the NFkB binding site (5′-[…]-3′) fused to an amplicon for qPCR readout, which was added directly to the expression extract (the final concentration of DNA-tag in the binding reaction is 0.1 nM).
Sequence of human TYK2 (JH2domain-pseudokinase) (P29597 556-888): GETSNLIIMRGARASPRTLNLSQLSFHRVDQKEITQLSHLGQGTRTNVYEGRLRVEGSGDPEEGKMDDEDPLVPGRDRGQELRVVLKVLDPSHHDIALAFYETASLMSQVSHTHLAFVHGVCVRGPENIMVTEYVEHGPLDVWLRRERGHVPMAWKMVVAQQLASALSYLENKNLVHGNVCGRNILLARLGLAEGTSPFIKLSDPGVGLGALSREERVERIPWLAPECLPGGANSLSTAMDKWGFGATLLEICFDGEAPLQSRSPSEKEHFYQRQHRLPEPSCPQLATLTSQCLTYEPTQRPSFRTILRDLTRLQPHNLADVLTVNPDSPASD
The liganded beads were blocked with excess biotin and washed with blocking buffer (SeaBlock (Pierce), 1% BSA, 0.05% Tween 20, 1 mM DTT) to remove unbound ligand and to reduce nonspecific binding.
Extracts were used directly in binding assays without any enzyme purification steps at a ≥10,000-fold overall stock dilution (final DNA-tagged enzyme concentration <0.1 nM). Extracts were loaded with DNA-tag and diluted into the binding reaction in a two step process. First extracts were diluted 1:100 in 1× binding buffer (PBS/0.05% Tween 20/10 mM DTT/0.1% BSA/2 μg/ml sonicated salmon sperm DNA) containing 10 nM DNA-tag. This dilution was allowed to equilibrate at room temperature for 15 minutes and then subsequently diluted 1:100 in 1× binding buffer. […] Kds were determined using an 11-point 3-fold compound dilution series with three DMSO control points. […] The compounds were then diluted directly into the assays such that the final concentration of DMSO was 0.9%. All reactions performed in polypropylene 384-well plates. Each was a final volume of 0.02 mL. Assays were incubated with shaking for 1 hour at room temperature. Then the beads were pelleted and washed with wash buffer (1×PBS, 0.05% Tween 20) to remove displaced kinase and test compound. […] The qPCR protocol consisted of a 10 minute hot start at 95° C., followed by 35 cycles of 95° C. for 15 seconds, 60° C. for 1 minute.
Kds were determined using an 11-point 3-fold compound dilution series with three DMSO control points. […] The compounds were then diluted directly into the assays such that the final concentration of DMSO was 0.9%. The Kds were determined using a compound top concentration of 30,000 nM. Kd measurements were performed in duplicate.
Binding constants (Kds) were calculated with a standard dose-response curve using the Hill equation: […]
The Hill Slope was set to −1.

pKd: −log10 of the molar value.

Consider `CNc1cc(Nc2cccn([C@@H]3CCC[C@H](C#N)C3)c2=O)nc2c(C(=O)NC3CC3)cnn12` [I-1244], for which the pKd (commonly the Kd on a negative log10 scale, so that one unit is a factor of ten) was > 9.70. Turning to `CNc1cc(-c2cn([C@@H]3CCCOC3)c3ncccc23)nc2c(C(=O)NC3CCC3O)cnn12` (mixture of isomers) [I-1257, N-(2-hydroxycyclobutyl)-7-(methylamino)-5-(1-((R)-tetrahydro-2H-pyran-3-yl)-1H-pyrrolo[2,3-b]pyridin-3-yl)pyrazolo[1,5-a]pyrimidine-3-carboxamide], the negative-log Kd (pKd) was > 9.70.

Take `CNc1cc(Nc2cccn([C@@H]3CCC[C@@H](OC)C3)c2=O)nc2c(C(=O)N[C@@H]3CC[C@H]3OC)cnn12` [I-1330]: the pKd is > 9.70. For the molecule `CNc1cc(Nc2cccn([C@@H]3CCC[C@H](O)C3)c2=O)nc2c(C(=O)N[C@@H]3CC[C@H]3OC)cnn12` [I-1190], the pKd is > 9.70. Turning to `CNc1cc(Nc2cccnc2OC)nc2c(C(=O)N[C@@H]3COC[C@@H]3O)cnn12` [I-519], the pKd was > 9.70. As for `CNc1cc(Nc2cccn(C(C)C)c2=O)nc2c(C(=O)N[C@H]3CC[C@@]3(C)O)cnn12` [I-1371], the negative-log Kd (pKd) is > 9.70. In the case of `NC(=O)c1cnn2c(N)cc(Nc3cc(Cl)cnc3O[C@@H]3CCOC3)nc12` [I-85], the pKd is 8.00 to 9.00. For `CNc1cc(Nc2cccn(C(C)C)c2=O)nc2c(C(=O)N[C@H]3COC[C@H]3O)cnn12` [I-1302] the value was > 9.70. `CNc1cc(Nc2cccn(-c3cccnc3)c2=O)nc2c(C(=O)N[C@@H]3CCC[C@@H](OC)C3)cnn12` [I-1218] showed a pKd of 8.00 to 9.00. Molecule `CNc1cc(Nc2cccn(C(C)C)c2=O)nc2c(C(=O)N[C@@H]3CC[C@]3(C)O)cnn12` [I-1370] had a pKd of 8.00 to 9.00. As to `CNc1cc(-c2cn([C@H]3CCN(CCF)C3)c3ncccc23)nc2c(C(=O)NC3CC3)cnn12` [I-1363], the pKd is 9.00 to 9.70. Take `CNc1cc(Nc2cccn([C@@H]3CCCOC3)c2=O)nc2c(C(=O)N[C@H]3C[C@@H]3OC)cnn12` [I-1414]: the pKd is < 8.00. Consider `CNc1cc(-c2cn(C(C)C)c3ncccc23)nc2c(C(=O)N[C@@H]3CC[C@]3(C)O)cnn12` [I-1326], for which the pKd was > 9.70. Consider `CNc1cc(Nc2cccn(C3CCOCC3)c2=O)nc2c(C(=O)N[C@@H]3CC[C@@H](OC)C3)cnn12` (stereo in doubt) [I-1334, N-(3-methoxycyclopentyl)-7-(methylamino)-5-((2-oxo-1-(tetrahydro-2H-pyran-4-yl)-1,2-dihydropyridin-3-yl)amino)pyrazolo[1,5-a]pyrimidine-3-carboxamide], for which the pKd is > 9.70. In turn, `CNc1cc(Nc2cccn([C@H]3CCC[C@@H](C#N)C3)c2=O)nc2c(C(=O)NC3CC3)cnn12` [I-1361] showed a pKd of 9.00 to 9.70. For `CNc1cc(-c2cn(C3CCOCC3)c3ncccc23)nc2c(C(=O)N[C@H]3COC[C@H]3O)cnn12` [I-1408] the value was 9.00 to 9.70. With `CNc1cc(Nc2cccn([C@@H]3C[C@H]3F)c2=O)nc2c(C(=O)N[C@@H]3CC[C@H](O)C3)cnn12` [I-1203] the figure was > 9.70; with `CNc1cc(Nc2cccn(C3CCOCC3)c2=O)nc2c(C(=O)N[C@H]3CCC[C@H](O)C3)cnn12` [I-1225], > 9.70; with `CNc1cc(Nc2cccn3ccnc23)nc2c(C(=O)N[C@@H]3CCC[C@@]3(C)O)cnn12` [I-1238], > 9.70.

`CNc1cc(Nc2cccn(-c3ccccn3)c2=O)nc2c(C(=O)N[C@H]3C[C@@H]3OC)cnn12` [I-1412] gave a pKd of 9.00 to 9.70.

On to `CNc1cc(-c2cn(C3CCOCC3)c3ncccc23)nc2c(C(=O)N[C@H]3CCC[C@]3(C)O)cnn12` [I-1222], for which the pKd is > 9.70. As to `CNc1cc(Nc2cccn(-c3cccnc3)c2=O)nc2c(C(=O)N[C@@H]3CCC[C@@H](OC)C3)cnn12` [I-1288], the pKd is > 9.70. Regarding `CNc1cc(-c2cn([C@H]3CCCOC3)c3ncccc23)nc2c(C(=O)N[C@H]3CC[C@H]3O)cnn12` [I-1258], the pKd was < 8.00. With `CNc1cc(-c2cn([C@@H]3CCC[C@H]3OC)c3ncccc23)nc2c(C(=O)NC3CCC3O)cnn12` (mixture of isomers) [I-1341, N-(2-hydroxycyclobutyl)-5-(1-((1R,2R)-2-methoxycyclopentyl)-1H-pyrrolo[2,3-b]pyridin-3-yl)-7-(methylamino)pyrazolo[1,5-a]pyrimidine-3-carboxamide] the figure was < 8.00; with `CNc1cc(Nc2cccn(-c3cccc(F)c3)c2=O)nc2c(C(=O)N[C@H]3COC[C@H]3O)cnn12` [I-1304], 9.00 to 9.70. `CNc1cc(Nc2cccn3ccnc23)nc2c(C(=O)N[C@@H]3COC[C@@H]3O)cnn12` [I-1261] gave a negative-log Kd (pKd) of 9.00 to 9.70. In the case of `CNc1cc(Nc2cccn(-c3ocnc3C)c2=O)nc2c(C(=O)N[C@H]3CC[C@H]3O)cnn12` [I-1259], the negative logarithm of the Kd (pKd) was < 8.00.

Take `CNc1cc(Nc2cccn([C@H]3CCN(CCF)C3)c2=O)nc2c(C(=O)N[C@@H]3CC[C@H]3OC)cnn12` [I-1380]: the pKd was > 9.70. For `CNc1cc(-c2cn(C3CC3)c3ncccc23)nc2c(C(=O)N[C@@H]3CCC[C@@]3(C)O)cnn12` [I-1280] the value was > 9.70. As to `CNc1cc(Nc2cc(Cl)cnc2O[C@@H]2CCOC2)nc2c(C(N)=O)cnn12` [I-84], the pKd is 9.00 to 9.70. In turn, `CNc1cc(Nc2cccnc2OC2CC2)nc2c(C(=O)N[C@H]3COC[C@H]3O)cnn12` [I-520] had a pKd of 9.00 to 9.70. Molecule `CNc1cc(Nc2cccn([C@@H]3C[C@H]3F)c2=O)nc2c(C(=O)N[C@@H]3CC[C@@H]3O)cnn12` [I-1403] showed a pKd of 9.00 to 9.70. For the molecule `CNc1cc(Nc2cccn([C@H]3CCCN(CCF)C3)c2=O)nc2c(C(=O)N[C@H]3CC[C@@H]3OC)cnn12` [I-1215], the pKd was > 9.70. `CNc1cc(Nc2cccn([C@H]3C[C@@H]3OC)c2=O)nc2c(C(=O)N[C@@H]3C[C@@H]3F)cnn12` [I-1272] gave a pKd of 8.00 to 9.00.

As to `CNc1cc(Nc2cccn([C@@H]3C[C@H]3F)c2=O)nc2c(C(=O)N[C@H]3CC[C@@H]3OC)cnn12` [I-1205], the pKd is > 9.70.

In the case of `CNc1cc(-c2cn(C3CCOCC3)c3ncccc23)nc2c(C(=O)N[C@@H]3CCC[C@@]3(C)O)cnn12` [I-1221], the pKd was 9.00 to 9.70. Turning to `CNc1cc(Nc2cccn([C@@H]3CCCOC3)c2=O)nc2c(C(=O)N[C@@H]3CCC[C@@](C)(OC)C3)cnn12` [I-1236], the pKd is > 9.70.

For the molecule `CNc1cc(-c2cn(C3CCOCC3)c3ncccc23)nc2c(C(=O)N[C@H]3CCCC[C@]3(C)O)cnn12` [I-1273], the pKd was < 8.00. For `CNc1cc(-c2cn([C@@H]3CCCOC3)c3ncccc23)nc2c(C(=O)N[C@H]3COC[C@H]3O)cnn12` [I-1250, N-(4-hydroxytetrahydrofuran-3-yl)-7-(methylamino)-5-(1-((R)-tetrahydro-2H-pyran-3-yl)-1H-pyrrol[2,3-b]pyridin-3-yl)pyrazol[1,5-a]pyrimidine-3-carboxamide] the value was 9.00 to 9.70; for `CNc1cc(Nc2cccn(-c3cnn(C)c3F)c2=O)nc2c(C(=O)N[C@@H]3CC[C@H]3OC)cnn12` [I-1368], > 9.70. `CNc1cc(Nc2cccn(C3CCOCC3)c2=O)nc2c(C(=O)N[C@@H]3CCC[C@@H](OC)C3)cnn12` [I-1297] had a pKd of 9.00 to 9.70. For `CNc1cc(Nc2cccn(-c3ccc(C)nc3)c2=O)nc2c(C(=O)N[C@H]3CCC[C@H](OC)C3)cnn12` [I-1289] the value was 8.00 to 9.00; for `CNc1cc(Nc2cccn(C3CC(F)(F)C3)c2=O)nc2c(C(=O)N[C@@H]3CC[C@H]3O)cnn12` [I-1198], > 9.70. For `CNc1cc(Nc2cccn([C@@H]3C[C@H]3F)c2=O)nc2c(C(=O)N[C@@H]3CC[C@H]3O)cnn12` [I-1402], the pKd is 8.00 to 9.00.

`CNc1cc(Nc2cccn(-c3ccc(C)nc3)c2=O)nc2c(C(=O)N[C@H]3CCC[C@H](OC)C3)cnn12` [I-1188] had a pKd of 8.00 to 9.00. `CNc1cc(Nc2cccn([C@H]3CCCOC3)c2=O)nc2c(C(=O)NC3CC3OC)cnn12` (mixture of isomers) [I-1415, N-(2-methoxycyclopropyl)-7-(methylamino)-5-((2-oxo-1-((S)-tetrahydro-2H-pyran-3-yl)-1,2-dihydropyridin-3-yl)amino)pyrazolo[1,5-a]pyrimidine-3-carboxamide]: the pKd was 9.00 to 9.70.
